The values below come from patent US9133129B2, “Bicyclic compound” (TAKEDA PHARMACEUTICAL COMPANY LIMITED, priority 2011, dated 2015).

SMILES strings stand for the structures.

For this experiment, the target named is T1, human ACC2 (Homo sapiens, UniProt O00763).
T1 construct: made in house; host or cells: SF-9 insect cells, recombinant baculovirus BAC-ACC2 (Nd)
As to the kind of experiment: ACC2 inhibitory activity, malachite green assay with recombinant ACC2 (Nd). The experiment is classed as biochemical. As to conditions: for inhibition at 10 µM / ACC2 inhibitory rates (%) at 10 μM: 10 μM of the test compound; for inhibition at 10 µM: read-out: ACC2 inhibitory rates (%) at 10 μM. Here is the method:
The ACC2 inhibitory action of the compound of the present invention was evaluated by the following method.
(1) Cloning of Human ACC2 Gene and Preparation of Recombinant Baculovirus
Human ACC2 gene was cloned by PCR using a human skeletal muscle cDNA library (Clontech) as a template and Primer 1 and Primer 2 shown below. Primer 1 and Primer 2 were prepared by adding SalI, XbaI restriction enzyme recognition sequences based on the information of the base sequence of human ACC2 gene (Genbank Accession U89344).
PCR was performed using Pyrobest DNA polymerase (TAKARA BIO INC.). The obtained PCR product was cloned to pT7 Blue vector (Novagen) and after confirmation of the base sequence, digested with restriction enzymes SalI and XbaI. The obtained DNA fragment was inserted into pFAST-BacHTa (Invitrogen) digested with restriction enzymes SalI and XbaI to give expression plasmid ACC2/pFAST-BacHTa.
A plasmid for expression of ACC2 without a mitochondrial targeting sequence was prepared by PCR using the expression plasmid as a template, and Primer 3 (SalI restriction enzyme recognition sequence was added) and Primer 4, which are prepared by reference to the information of human ACC2 gene base sequence (Genbank Accession U89344).
PCR was performed using Pyrobest-DNA polymerase (TAKARA BIO INC.). The obtained PCR product was cloned to pT7 Blue vector (Novagen) and after confirmation of the base sequence, digested with restriction enzymes SalI and AflII. The obtained DNA fragment was inserted into ACC2/pFAST-BacHTa digested with restriction enzymes SalI and AflII to give expression plasmid ACC2mito7/pFAST-BacHTa.
Using the expression plasmid ACC2mito7/pFAST-BacHTa and BAC-TO-BAC Baculovirus Expression System (Invitrogen), virus stock BAC-ACC2 of recombinant Baculovirus (N terminal deleted (hereinafter Nd)) was prepared.
(2) Preparation of ACC2 (Nd) Protein
SF-9 cells (Invitrogen) were inoculated to a medium (10 L) for insect cells (Sf-900IISFM medium (Invitrogen) containing 5% fetal bovine serum (Trace), 50 mg/L Gentamicin (Wako), 0.1% Pluronic F-68 (Invitrogen)) at 1.0×10^6 cells/mL, and cultured with shaking in Wave Bioreactor (GE Health Care) at 27° C., 20 rpm, rocking angle 10°, oxygen concentration 30%.
On day 2 of the culture, recombinant Baculovirus BAC-ACC2 (Nd) was added, and the cells were cultured for 3 days. The culture medium was centrifuged at 1000×g for 10 min to give virus-infected cells. The cells were washed with phosphate buffered saline (Invitrogen) and centrifuged under the same conditions. The obtained cells were cryopreserved at −80° C.
The cryopreserved cells were thawed in ice and suspended in 900 mL of 25 mM HEPES buffer (pH 7.5) containing 10% Glycerol, 0.3 M NaCl, 1 mM EDTA, 25 mM Sodium β-Glycerophosphate and 1 mM Sodium Orthovanadate, and supplemented with Complete Protease Inhibitor (Roche). The obtained suspension was homogenized three times in a polytron homogenizer (Kinematica) at 20,000 rpm for 30 sec. The obtained cell disruption solution was clarified by centrifugation at 186000×g for 60 min. To the supernatant was added 5 mL of AF-chelate 650M Ni chelated carrier (TOSOH), and the mixture was rotated at 4° C. for 1 hr, and centrifuged at 1000×g for 5 min, and the carrier was transferred to opened column. The column was washed with 50 mL of buffer A (50 mM HEPES (pH 7.5) containing 0.3 M NaCl), further washed with buffer A containing 20 mM Imidazole, and eluted with buffer A containing 250 mM Imidazole. The eluate was concentrated with Amicon Ultra 15 (Millipore) with a molecular weight cut off of 50K. The obtained concentrate was filtered using gelfiltration column (HiLoad 26/60 Superdex200 prep grade) (GE Health Care) with 50 mM HEPES buffer (pH 7.5) containing 10 mM MgCl2, 2 mM Dithiothreitol, 10 mM Tripotassium Citrate and 0.3 M NaCl to give ACC2 (Nd). The obtained ACC2 (Nd) was cryopreserved at −80° C.
(3) Measurement of ACC2 Inhibitory Activity […]

T1 sequence (O00763 117-2458 limits assumed): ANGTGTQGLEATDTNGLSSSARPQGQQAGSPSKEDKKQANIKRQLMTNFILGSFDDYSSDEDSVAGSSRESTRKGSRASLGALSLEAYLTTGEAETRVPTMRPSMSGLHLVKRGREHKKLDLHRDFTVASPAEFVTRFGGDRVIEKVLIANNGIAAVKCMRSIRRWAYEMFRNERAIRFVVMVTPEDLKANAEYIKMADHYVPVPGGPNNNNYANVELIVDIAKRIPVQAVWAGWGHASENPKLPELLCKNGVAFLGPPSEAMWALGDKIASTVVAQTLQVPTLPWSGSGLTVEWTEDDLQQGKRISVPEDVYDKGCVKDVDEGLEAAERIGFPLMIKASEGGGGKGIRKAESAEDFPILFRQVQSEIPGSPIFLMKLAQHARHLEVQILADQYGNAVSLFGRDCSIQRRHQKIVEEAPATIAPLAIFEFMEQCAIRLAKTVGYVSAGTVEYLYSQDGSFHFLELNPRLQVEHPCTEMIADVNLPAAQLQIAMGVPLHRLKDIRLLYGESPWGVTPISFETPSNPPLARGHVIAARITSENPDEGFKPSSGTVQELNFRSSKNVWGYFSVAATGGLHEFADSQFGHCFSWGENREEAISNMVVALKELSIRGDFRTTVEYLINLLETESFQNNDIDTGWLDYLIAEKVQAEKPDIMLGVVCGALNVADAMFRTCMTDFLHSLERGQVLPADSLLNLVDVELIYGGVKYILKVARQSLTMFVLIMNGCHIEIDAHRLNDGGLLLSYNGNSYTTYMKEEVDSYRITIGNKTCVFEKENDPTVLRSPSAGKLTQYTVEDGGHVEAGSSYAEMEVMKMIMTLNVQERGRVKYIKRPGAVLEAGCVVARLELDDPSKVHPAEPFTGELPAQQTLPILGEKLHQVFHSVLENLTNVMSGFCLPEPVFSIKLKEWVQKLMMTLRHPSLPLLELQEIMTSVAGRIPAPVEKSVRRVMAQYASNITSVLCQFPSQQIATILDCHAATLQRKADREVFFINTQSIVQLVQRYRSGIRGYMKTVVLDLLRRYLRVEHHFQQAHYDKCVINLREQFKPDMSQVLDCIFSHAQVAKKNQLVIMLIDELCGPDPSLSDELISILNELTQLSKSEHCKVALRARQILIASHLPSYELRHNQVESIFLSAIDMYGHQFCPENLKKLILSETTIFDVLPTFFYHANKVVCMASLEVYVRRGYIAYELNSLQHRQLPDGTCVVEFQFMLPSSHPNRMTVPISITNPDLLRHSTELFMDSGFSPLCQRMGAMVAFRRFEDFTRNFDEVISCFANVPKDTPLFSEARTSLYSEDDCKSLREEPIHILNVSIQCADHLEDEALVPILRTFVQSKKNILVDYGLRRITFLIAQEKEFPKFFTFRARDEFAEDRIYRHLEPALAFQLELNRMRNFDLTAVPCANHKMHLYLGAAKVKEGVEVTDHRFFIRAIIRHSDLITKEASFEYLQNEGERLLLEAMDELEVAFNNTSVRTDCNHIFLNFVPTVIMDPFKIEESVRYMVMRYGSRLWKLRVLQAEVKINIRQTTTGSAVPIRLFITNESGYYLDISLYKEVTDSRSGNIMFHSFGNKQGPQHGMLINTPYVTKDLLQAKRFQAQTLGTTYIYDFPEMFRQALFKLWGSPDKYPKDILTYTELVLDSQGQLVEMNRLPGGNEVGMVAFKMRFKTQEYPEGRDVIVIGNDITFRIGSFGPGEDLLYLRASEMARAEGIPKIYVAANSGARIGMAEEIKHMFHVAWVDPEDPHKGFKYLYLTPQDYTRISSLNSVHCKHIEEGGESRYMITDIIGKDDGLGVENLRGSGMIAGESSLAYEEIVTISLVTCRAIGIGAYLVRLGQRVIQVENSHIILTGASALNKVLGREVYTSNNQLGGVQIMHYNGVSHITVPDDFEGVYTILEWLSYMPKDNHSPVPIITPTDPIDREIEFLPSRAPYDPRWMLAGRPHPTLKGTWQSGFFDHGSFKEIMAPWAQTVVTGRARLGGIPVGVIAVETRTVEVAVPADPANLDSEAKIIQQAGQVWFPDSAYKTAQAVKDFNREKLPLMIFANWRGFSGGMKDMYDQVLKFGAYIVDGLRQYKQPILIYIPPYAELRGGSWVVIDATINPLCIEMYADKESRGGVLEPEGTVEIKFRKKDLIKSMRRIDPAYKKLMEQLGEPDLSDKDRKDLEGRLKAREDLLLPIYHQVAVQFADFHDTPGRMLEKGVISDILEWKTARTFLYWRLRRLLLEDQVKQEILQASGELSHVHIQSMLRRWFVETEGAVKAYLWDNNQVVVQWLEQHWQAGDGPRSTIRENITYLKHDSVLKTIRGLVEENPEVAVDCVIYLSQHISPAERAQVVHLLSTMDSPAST

`CC(=O)N[C@@H](C)COc1cc2oc(-c3cnc(OCC4CC4)cc3C)nc2cn1` [Example 122, N-((2S)-1-((2-(6-(cyclopropylmethoxy)-4-methylpyridin-3-yl)[1,3]oxazolo[4,5-c]pyridin-6-yl)oxy)propan-2-yl)acetamide]: the inhibition at 10 µM was determined as 84%.

`CC(=O)N[C@@H](C)COc1cc2oc(-c3ccc(OCC4CC4)cc3C)nc2cn1` [Example 117, N-((2S)-1-((2-(4-(cyclopropylmethoxy)-2-methylphenyl)[1,3]oxazolo[4,5-c]pyridin-6-yl)oxy)propan-2-yl)acetamide]: the inhibition at 10 µM turned out to be 101%.

With `CC(=O)N[C@@H](C)COc1ncc2nc(-c3cc(F)c(OC[C@H]4CC4(F)F)c(F)c3)oc2n1` [Example 167, N-((2S)-1-((2-(4-(((1R)-2,2-difluorocyclopropyl)methoxy)-3,5-difluorophenyl)[1,3]oxazolo[5,4-d]pyrimidin-5-yl)oxy)propan-2-yl)acetamide], the inhibition at 10 µM came out at 81%.

In the case of `CC(=O)N[C@@H](C)COc1cc2oc(-c3cc(F)c(OCC4CC4(F)F)c(F)c3)nc2cn1` (stereo partly drawn) [Example 131, N-((2S)-1-((2-(4-((2,2-difluorocyclopropyl)methoxy)-3,5-difluorophenyl)[1,3]oxazolo[4,5-c]pyridin-6-yl)oxy)propan-2-yl)acetamide], the inhibition at 10 µM was 96%.

With `CC(=O)N[C@@H](C)COc1cc2oc(-c3cc(F)c(OCC4CC4(F)F)c(F)c3)nc2cn1` (stereo partly drawn) [Example 86, N-((2S)-1-((2-(4-((2,2-difluorocyclopropyl)methoxy)-3,5-difluorophenyl)[1,3]oxazolo[4,5-c]pyridin-6-yl)oxy)propan-2-yl)acetamide], the “ACC2 inhibitory rates (%) at 10 μM” value was 89%. Take `CC(=O)N[C@@H](C)COc1cc2oc(-c3ccc(OC[C@H]4CC4(F)F)c(F)c3)nc2cn1` [Example 69, N-((2S)-1-((2-(4-(((1R)-2,2-difluorocyclopropyl)methoxy)-3-fluorophenyl) [1,3]oxazolo[4,5-c]pyridin-6-yl)oxy)propan-2-yl)acetamide]: the inhibition at 1 µM (1 μM of the test compound, read-out: ACC2 inhibitory rates (%) at 1 μM) was 98%. `CC(=O)N[C@@H](C)COc1cc2oc(-c3ccc(OCC4CC4(F)F)c(F)c3)nc2cn1` (stereo partly drawn) [Example 49, N-((2S)-1-((2-(4-((2,2-difluorocyclopropyl)methoxy)-3-fluorophenyl)[1,3]oxazolo[4,5-c]pyridin-6-yl)oxy)propan-2-yl)acetamide]: the inhibition at 10 µM was determined as 94%. Turning to `CC(=O)N[C@@H](C)COc1cc2oc(-c3ncc(OCC4CC4)cc3C)nc2cn1` [Example 120, N-((2S)-1-((2-(5-(cyclopropylmethoxy)-3-methylpyridin-2-yl)[1,3]oxazolo[4,5-c]pyridin-6-yl)oxy)propan-2-yl)acetamide], the inhibition at 10 µM is 96%. Consider `CC(=O)N[C@@H](C)COc1cc(F)c2nc(-c3ccc(OCC4CC4)c(F)c3)oc2c1` [Example 43, N-((2S)-1-((2-(4-(cyclopropylmethoxy)-3-fluorophenyl)-4-fluoro-1,3-benzoxazol-6-yl)oxy)propan-2-yl)acetamide], for which the inhibition at 10 µM is 92%. As for `CC(=O)NC(C)COC1CCc2oc(-c3ccc(OCC4CC4)c(F)c3)nc2C1` (stereo not drawn) [Example 51d, N-(1-((2-(4-(cyclopropylmethoxy)-3-fluorophenyl)-4,5,6,7-tetrahydro-1,3-benzoxazol-5-yl)oxy)propan-2-yl)acetamide], the “ACC2 inhibitory rates (%) at 10 μM” value was found to be 95%. With `CC(=O)N[C@@H](C)COc1cc2oc(-c3cnc(OCC4CC4)c(Cl)c3)nc2cn1` [Example 35, N-((2S)-1-((2-(5-chloro-6-(cyclopropylmethoxy)pyridin-3-yl)[1,3]oxazolo[4,5-c]pyridin-6-yl)oxy)propan-2-yl)acetamide], the inhibition at 10 µM amounted to 83%. `CC(=O)N[C@@H](C)COc1cc2oc(-c3ncc(OC[C@H]4CC4(F)F)cc3Cl)nc2cn1` [Example 163, N-((2S)-1-((2-(3-chloro-5-(((1R)-2,2-difluorocyclopropyl)methoxy)pyridin-2-yl)[1,3]oxazolo[4,5-c]pyridin-6-yl)oxy)propan-2-yl)acetamide]: the inhibition at 10 µM worked out at 93%.
